# Results from patent US6479495B1, “Aminoalkylphenol derivatives and related compounds” (priority 1997, dated 2002).
# Counter-ions that a name gives are not always drawn.
# Molecular target: T1, acetylcholinesterase (Rattus norvegicus, UniProt P37136)
# T1 construct: corpora striata dissected free, weighted and homogenized in 19 volumes (approximately 7 mg protein/ml) of 0.05M Phosphate Buffer; from tissue; host or cells: rat brain corpora striata, crude homogenate
# T1 sequence (P37136 32-614): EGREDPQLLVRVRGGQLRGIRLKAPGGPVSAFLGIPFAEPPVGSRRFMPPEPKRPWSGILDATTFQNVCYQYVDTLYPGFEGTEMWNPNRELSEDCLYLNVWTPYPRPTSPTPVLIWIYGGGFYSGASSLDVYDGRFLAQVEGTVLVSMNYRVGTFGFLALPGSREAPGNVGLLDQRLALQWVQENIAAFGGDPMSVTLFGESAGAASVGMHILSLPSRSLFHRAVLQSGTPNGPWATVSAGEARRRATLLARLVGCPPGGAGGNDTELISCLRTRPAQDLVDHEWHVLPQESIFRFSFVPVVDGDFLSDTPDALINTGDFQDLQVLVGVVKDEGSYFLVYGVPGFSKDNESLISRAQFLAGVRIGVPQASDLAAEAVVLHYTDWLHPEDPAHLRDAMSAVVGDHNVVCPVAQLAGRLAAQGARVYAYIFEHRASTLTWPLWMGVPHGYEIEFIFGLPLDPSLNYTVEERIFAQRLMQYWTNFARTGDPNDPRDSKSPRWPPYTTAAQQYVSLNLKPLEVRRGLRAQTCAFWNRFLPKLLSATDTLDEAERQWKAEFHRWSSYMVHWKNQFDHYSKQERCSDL
# Assay: biochemical
# Conditions: Male Wistar rat corpora striata homogenate; preincubated 10 minutes at 37° C.; acetylthiocholine substrate 5 millimolar final; log-probit analysis; read-out: Inhibition of Acetylcholinesterase Activity IC50
# Experimental: 1. 0.05M Phosphate Buffer (pH 7.2)
# A solution of monobasic sodium phosphate monohydrate (6.85 g) in distilled water (100 ml) is added to a solution of dibasic sodium phosphate heptahydrate (13.4 g) and distilled water (100 ml) until a pH of 7.2 was attained. The solution was diluted 1 to 10 with distilled water.
# 3. 5,5-Dithiobisnitrobenzoic acid in Buffer
# The 0.05M Phosphate Buffer (pH 7.2) was added to 5.5-dithiobisnitrobenzoic acid to a total volume of 100 ml, i.e., a quantity sufficient (gs) to 100 ml.
# 4. Stock Solution of Drug
# A 2 millimolar stock solution of the test drug is prepared in a quantity sufficient of either acetic acid or dimethyl sulfoxide to volume with 5,5-dithiobisnitrobenzoic acid in Buffer. Stock Solution of Drug is serially diluted (1:10) so that the final cuvette concentration is 10^−4 molar.
# Male Wistar rats are decapitated, brains rapidly removed, corpora striata dissected free, weighted and homogenized in 19 volumes (approximately 7 mg protein/ml) of 0.05M Phosphate Buffer (pH 7.2) using a Potter-Elvejhem homogenizer. A 25 μl aliquot of this suspension is added to 1 ml of the vehicle or various concentrations of the test drug and preincubated for 10 minutes at 37° C. Enzyme activity is measured with a Beckman DU-50 spectrophotometer with the following software and instrument settings:
# Reagents are added to the blank and sample cuvettes as follows:
# Blank values are determined for each run to control for non-enzymatic hydrolysis of substrate and these values are automatically subtracted by the Kindata program available on kinetics soft-pac module. This program also calculates the rate of absorbance change for each cuvette.
# Substrate concentration is 10 millimolar diluted 1:2 in assay yielding final concentration of 5 millimolar. 5,5-dithiobisnitrobenzoicacid concentration is 0.5 millimolar yielding 0.25 millimolar final concentration. [formula]
# IC50 values are calculated from log-probit analysis
row,Compound,IC50 [nM]
1,4-(Methylaminocarbonyloxy)-3-(propargyloxy)1-(pyrrolidinomethyl)benzene Citrate [Example 17],3.6
2,"CNC(=O)Oc1ccc(CN2CCN(c3ccccn3)CC2)cc1OC [Example 35, 4-[[3-Methoxy-4-(methylaminocarbonyloxy)]phenylmethyl]-1-(pyridin-2-yl)piperazine Hydrochloride Monohydrate]",536
3,"COc1cc(C(C)N2CCN(c3ccccn3)CC2)ccc1OC(=O)N(C)C (stereo not shown) [Example 78, 1-[1-(4-N,N-Dimethylcarbamoyloxy-3-methoxyphenyl)ethyl]-4-pyridin-2-yl-piperazine Dihydrochloride]",358
4,"CNC(=O)Oc1cc(CN2CCN(c3ccccn3)CC2)ccc1OC [Example 38, 4-[[4-Methoxy-3-(methylaminocarbonyloxy)]phenylmethyl]-1-(pyridin-2-yl)piperazine Dihydrochloride]",2390
5,"COc1cc(CN2CCN(c3ccccn3)CC2)c(Br)cc1OC(=O)N(C)C [Example 67, N-(2-Bromo-4-[dimethylcarbamoyloxy]-5-methoxy)benzyl-N′-(pyridin-2-yl)-piperazine]",18

# Same assay, conditions: read-out: Inhibition of Acetylcholinesterase Activity IC50
row,Compound,IC50 [nM]
1,"CC(c1ccc(OC(=O)N(C)C)c(F)c1)N1CCN(c2ccccn2)CC1 (stereo not shown) [Example 74, 1-[1-(4-N,N-Dimethylcarbamoyloxy-3-fuorophenyl)ethyl]-4-pyridin-2-yl-piperazine]",14000

# System: not given
# Assay: not given
# Conditions: not given
row,melting point,Compound
1,205 to 208 °C (dec.),"CNC(=O)Oc1ccc(CN2CCc3cc(OC)c(OC)cc3C2)cc1OC (as salt: hydrochloride) [Example 42, 2-[3-Methoxy-4-(methylaminocarbonyloxy)phenylmethyl]-1-(6,7-dimethoxy)-1,2,3,4-tetrahydroisoquinoline Hydrochloride]"
2,55 to 57 °C,COC1(OCCO)CCN(Cc2ccccc2)C1 (stereo not shown)
3,196 to 206 °C,"COc1cc(CN2CCN(c3ccccc3OC)CC2)ccc1OC(=O)N(C)C (as salt: hydrochloride) [Example 49, 1-[[4-(Dimethylaminocarbonyloxy)-3-(methoxy)phenyl]methyl]-4-(2-methoxyphenyl)piperazine Dihydrochloride]"
4,190 to 193 °C,COc1cc(CN2CCN(c3ccccc3Cl)CC2)ccc1OC(=O)N(C)C.Cl
5,140 to 145 °C,COc1cc(CN2CCN(c3ccccn3)CC2)ccc1OC(=O)N(C)C [Example 40]
6,220 to 222 °C (dec.),"C#CCOc1cc(CN2CCc3cc(OC)c(OC)cc3C2)ccc1OC (as salt: hydrochloride) [Example 36, 6,7-Dimethoxy-N-[(4-methoxy)-3-(propargyloxy)phenylmethyl]-1,2,3,4-tetrahydroisoquinoline Hydrochloride]"
7,81 to 83 °C,C#CCOc1cc(C=O)ccc1OS(C)(=O)=O
8,130 to 133 °C,COc1cc(CN2CCN(c3ccccc3F)CC2)ccc1OC(=O)N(C)C

# The remaining lines, values behind:
row,Compound,melting point
1,CNC(=O)Oc1ccc(CN2CCN(c3ccc([N+](=O)[O-])cc3)CC2)cc1OC,155 to 157 °C
2,CCOC(=O)COc1cc(C=O)ccc1OCc1ccccc1,36 to 43 °C
